What was measured:
Assay type in all cases: in vivo
apple = assay: Apple field trial (heat, light and/or water stress), Shepparton, Victoria
Procedure: (§1) Field trials were carried out in parts of commercial orchards or fields in Australia during the 2009-2010 season. Crops were evaluated for specific parameters impacted by abiotic stress including fruit diameter, fruit number, amount of sunburn damage and number of flowers aborted. The crops evaluated were apple, citrus, tomato and wine grape. […] Heat and light stress occurred early during the trials, with exposures to 40° C.^+ temperatures in November; about 4-6 weeks after the trials were initiated. This period of stress was followed by varied temperatures including temperatures that were in the mid-to-high 30° C. range.
(§2) The foliage and fruit for each crop were assessed prior to treatment and then at regular intervals through the season for any signs of phytotoxicity. No phytotoxicity was observed on either the foliage or the fruit for any of the applied formulations for any of the crops. In addition, all trials were determined to be disease and pest free.
(§3) Screen (kaolin), Screen Duo (kaolin and salicylate), Surround (kaolin) and Parasol (calcium carbonate) are standard treatments used in the management of heat, light and water stress. Kaolin and calcium carbonate reduce stress by reflecting UV, visible, and infrared radiation, thereby reducing the impact of excess heat and light on photosynthesis and other cellular processes.
(§4) The citrus and apple trials received four and five applications, respectively, of the various formulations, set forth in Table 1 (below), prior to experiencing abiotic stress. Tomatoes received biweekly applications of the treatments throughout the trial.
As described above for citrus, early season heat, light and/or water stress can also impede cell division that occurs during Phase I of fruit development of apples. In the apple trial, which was conducted in Shepparton, Victoria, Australia, the load of fruit on each of the trees was thinned to an approximately equal value (approximately 200 fruit per tree; +/−5%), thus eliminating the confounding effect of fruit load on fruit diameter. To assess sunburn/heat stress damage, all apples were harvested from the center tree in each plot and rated according to the following rating system.
Rating Visual Assessment of the Fruit
1 Slight yellowing on the exposed side (<5% of the fruit area)
2 Noticeable yellowing on the exposed side (>5% of the fruit area)
3 Moderate sunburn with pronounced lenticels (fruit unmarketable)
4 Significant sunburn (fruit unmarketable)

citrus = assay: Citrus field trial (heat, light and/or water stress), Cobram, Victoria
Procedure: as §1, §2, §3, §4
In general, a lower fruit load results in greater fruit diameter at harvest. Early season differences in fruit diameter are due to variation in cell division. It is well documented that at equal fruit load, heat stress will result in smaller fruit (i.e., reduced fruit diameter). In addition, heat, light, and/or water stress can also result in fruit number losses, commonly known in citrus as “June drop.” Past studies indicate that protecting the crop with Screen/Duo starting at petal fall can result in larger fruit and higher numbers of fruit, most likely by reducing the crop temperature and reducing stress signaling reactive oxygen (ROX).
The trial described below was conducted in Cobram, Victoria, Australia. Several parameters were measured as responses to heat, light and/or water stress: early citrus fruit diameter, number of fruit per cubic meter foliage, percent sunburn, later season fruit diameter and kilograms of fruit per cubic meter foliage. Sunburn damage is the late stage result of combined heat and light stress. […] There was little correlation observed between fruit number and fruit size (correlation […]).

Tomato plants = assay: Tomato pot trial, heat and light stress in the greenhouse; details: for Avg. growth in cm. (tomato fruits exposed to heat and light stress): April 2-May 10; for Avg growth in cm. (tomato fruits exposed to heat and light stress): April 2-May 18
Procedure: Tomato plants were exposed to heat and light stress in the greenhouse. Control plants had no treatment or were treated with Screen, Screen Plus1, Screen Plus2, or Screen Plus3, The experimental plants were treated with azelaic acid at 10^−4 M or 10^−3 M applied alone or in combination with Screen, Screen Plus1, Screen Plus2, or Screen Plus3.

wine grape = assay: Wine grape field trial (sunburn/heat stress, yield), Kialla, Victoria
Procedure: as §1, §2, §3
The trial described below was conducted in Kialla, Victoria, Australia. The trial design was a randomized complete block with four replicates. Each plot comprises one panel of vines having four vines. For yield measurements the grapes were harvested from each of the two center vines in each panel and bunch numbers and weights were recorded. For assessment of sunburn/heat stress damage, the bunches of grapes were rated according to the following system: […]

tomato = assay: Tomato field trial (flower abortion, sunburn, yield), Echuca, Victoria
Procedure: as §1
The foliage and fruit for each crop were assessed prior to treatment and then at regular intervals through the season for any signs of phytotoxicity.
Kaolin and calcium carbonate reduce stress by reflecting UV, visible, and infrared radiation, thereby reducing the impact of excess heat and light on photosynthesis and other cellular processes.
as §4
Flower abortion in tomato results in significant yield losses in tomato and begins at temperatures of 28 C, becoming more severe as temperatures rise. Further, once fruit has developed, it is susceptible to damage from heat and light, expressed as sunburn.
In the present study, tomatoes, located in a commercial field outside Echuca, Victoria, Australia, were treated with azeleic acid (CMM2009A). The number of aborted flowers per plot was assessed periodically during the season. Tomato yield and sunburn damage was assessed as follows. Tomatoes from the center of each plot were harvested from a one meter section of the tomato beds. The fruit was visually assessed as being either red in color and suitable for processing, green in color, or sun burnt. The fruit from these three categories were kept separate, weighed and recorded.

tomatoes = assay: Tomato pot study with sebacic acid (high heat, light and water stress)
Procedure: A tomato pot study was conducted with sebacic acid to determine the activity of sebacic acid in increasing tolerance to abiotic stress. The tomatoes were grown in a standard medium in pots and subjected to the abiotic stresses of high heat, light, and water stress. Growth of the plants was used as a measure of the ability of the sebacic acid to reduce the impact of abiotic stress. Growth measurements were taken 32 days after treatment with sebacic acid

[1] = apple field trial, rates per Table 3
[2] = citrus, versus standard treatments
[3] = azelaic at 10^−4M where applied, Screen applications at rate equivalent of 25 kg/ha
[4] = wine grape field trial, 10 Mar. 2010, four applications

O=C(O)CCCCCCCC(=O)O [Azeleic acid, azelaic acid (nonanedioic acid)]
Fruit Diameter (mm) (apple; apple field trial, 12 Dec. 2010, fruit load thinned to approx. 200 fruit per tree, rates per Table 3): 39.84 mm | % Fruit Sunburn 1&2 (apple; apple field trial, 16 Feb. 2010, 1&2 are export grade or commercially acceptable grade apples, rates per Table 3): 87.4% | Yield kg/tree (apple; apple field trial, 17 Mar. 2010, rates per Table 3): 42.8 kg/tree | Apple Size g/apple (apple; [1]): 152 g/apple | Marketable Yield kg/tree (apple; [1]): 37.4 kg/tree | Protecting cell division as measured by fruit diameter, percent sunburn, apple size, yield and marketable yield (in words) (apple; apple, alone or in combination with kaolin, salicylate, glycine betaine, or multiples thereof): as effective as the standard treatments | Fruit Number per cubic meter (citrus; citrus field trial, 6 Jan. 2010, per cubic meter foliage, four applications, rates per Table 2): 10.62 per cubic meter | Fruit Diameter (mm) (citrus; citrus field trial, 12 Apr. 2010 (later season), four applications, rates per Table 2): 71.59 mm | Fruit Diameter (mm) (citrus; citrus field trial, 14 Dec. 2010 (early fruit diameter), four applications, rates per Rate column of Table 2): 29.49 mm | Percent Sunburn (citrus; citrus field trial, 28 Jan. 2010, four applications, rates per Table 2): 5.6% | kgs/cubic meter of foliage (citrus; citrus field trial, 29 Sep. 2010, kilograms of fruit, four applications, rates per Table 2): 3.8 kgs/cubic meter of foliage | Protecting cell division, as measured by early fruit diameter (in words) (citrus; citrus, azelaic acid alone versus Screen, Screen Duo, Surround and Parasol): as effective as the standard treatments | Protection from sunburn damage (in words) (citrus; [2]): equal to that obtained using the standard treatments | Reducing fruit loss (in words) (citrus; [2]): as effective in reducing fruit loss | Avg. growth in cm. (tomato fruits exposed to heat and light stress) (Tomato plants; azelaic at 10^−3M, no Screen): 8.0 cm | Avg. growth in cm. (tomato fruits exposed to heat and light stress) (Tomato plants; [3]): 11.0 cm | Avg growth in cm. (tomato fruits exposed to heat and light stress) (Tomato plants; azelaic at 10^−3M, no Screen): 6.1 cm | Avg growth in cm. (tomato fruits exposed to heat and light stress) (Tomato plants; [3]): 8.7 cm | Protection from the abiotic stress as measured by average fruit size (in words) (Tomato plants; tomato pot trial, azelaic acid at 10^−4 M): equivalent to or better than the standard treatments | Bunch Weight (grams) (wine grape; wine grape field trial, 10 Mar. 2010, average weight of a bunch, four applications): 94.7 grams | Yield kg/ha (wine grape; [4]): 9230 kg/ha | Yield kg/vine (wine grape; [4]): 3.6 kg/vine | % Bunches Rating 1 + 2 (wine grape; wine grape field trial, 10 Mar. 2010, rating 1 = 0%, 2 = 1-5% incidence of sunburn/heat stress on bunches, four applications, rates per Table 6): 96.8% | Protection from heat, water and light stress (bunch rating, yield, bunch weight; in words) (wine grape; wine grape, alone or in combination with salicylate, kaolin, or combinations thereof): equivalent to or better than the standard treatments | Yield Red MT/ha (tomato; 12 Mar. 2010, red fruit suitable for processing, ten applications): 131 MT/ha | Yield Sunburn MT/ha (tomato; 12 Mar. 2010, sun burnt fruit, ten applications): 6.6 MT/ha | Soluble Solids MT/ha (tomato; 12 Mar. 2010, ten applications): 6.2 MT/ha | Total Yield MT/ha (tomato; 12 Mar. 2010, ten applications): 137.6 MT/ha | Number Sunburn Fruit per plot (tomato; 20 Feb. 2010, ten applications, rates per Table 4): 21.3 per plot | Aborted Flowers per sq m of the plot (tomato; 20 Jan. 2010, ten applications, rates per Table 4): 5 per sq m of the plot | Protection from sunburn damage (in words) (tomato; alone or in combination with salicylate, kaolin, glycine betaine): equivalent to or better than the standard treatments | Number of flowers aborted (in words) (tomato; versus standard treatments): reduce the number of flowers aborted to the same degree as the standard treatments

sebacic acid (decanedioic acid)
Growth (mm) (tomatoes; tomato plants in pots, 1 × 10−4M, 32 days after treatment, high heat, light and water stress): 25.3 mm | Growth compared with the untreated plants (in words) (tomatoes; tomato pot trial, Table 7): statistically significant greater growth
